Test results taken from US9427433B2, “Methods and compositions for enhancing fertility and/or inhibiting pregnancy failure and restoring glucose tolerance” (Queen's University at Kingston, priority 2011, dated 2016).

How the values were obtained:
diabetic NOD mice = assay: Weekly non-fasting blood glucose monitoring; assay type: in vivo, mouse; settings: FIG. 16A
Method: Through the use of Ultra Glucosemeter (Accu-Chek Aviva/Roche Diagnostic, Laval, Quebec, Canada) blood glucose levels for all mice were monitored via tail venipuncture once a week on a regular basis beginning at the age of 8 weeks. Animals with non-fasting or those having blood glucose values ≧14.9 mmol/L after the glucose challenge (glucose tolerance) test were identified as diabetic. […] The selected mice were 9 weeks old and were treated with 0.1 mg/kg q2d of tacrolimus (Prograf (5 mg/ml), Astellas) subcutaneously administered in 0.2 ml saline for three weeks after which animals were mated to males of the same strain (See FIG. 1). Vehicle (0.2 ml saline, s.q.) treated hyperglycemic NOD female mice were allowed two weeks in diabetes before they were mated to males of the same strain. Facial (mandibular) venous blood samples were collected from treated animals at 24 and 48 hours between injections and at pregnancy days 0.5, 2.5, 4.5, 6.5, 8.5, 10.5, 12.5, 14.5, 16.5 and 18.5 respectively following a standard procedure for facial bleed in mice (Golde et al Lab Anim (NY) 2005 34:39-43).

[1] = system: type 2 diabetic NZO and DIO mice; assay: Serum testosterone and luteinizing hormone (PCOS phenotype); assay type: in vivo, mouse
Method: Hypertestosteronism (Hyperandrogenism) and low serum levels of Luteinizing hormone (LH) are among the cardinal biochemical features of established PCOS syndrome. […] Serum samples from tacrolimus-treated and saline-injected type 2 diabetic NZO and DIO mice were analyzed for their testosterone and luteinizing hormone (LH) levels in the morning of vaginal plug detection after mating and at 4.5 days later to assess the integrity of their pituitary-ovarian endocrine interactions during successful mating and at embryo implantation.
Twenty NZO and DIO/B6 female mice were maintained on a high fat diet consisted of 60% kcal fat, 20% kcal protein and 20% kcal carbohydrate, with a total energy mass of 5.24 kcal/gm (D12492, Research Diets Inc.; Cedarlane Laboratories, Burlington, Ontario, Canada) starting at 7 weeks of age and maintained on the diet for a total of 12 weeks of study period during which their weekly body weight changes and non-fasting blood glucose values were recorded. Mice which became obese as defined by having a Body mass index (BMI) value of 30, and tested positive for glucose intolerance were selected for an initial treatment episode with tacrolimus after being fed for four weeks with the high fat diet (See FIG. 2). […]

NOD mice = NOD mice at younger age, model for Type 1 diabetes; cited from earlier work
NOD, NZO and DIO mice = assay: Ovarian function, serum estrogen/progesterone, follicle counts and uterine weight ratio; assay type: in vivo, mouse
Method: Using Papanicolaou's staining kit (Sigma Aldrich, Oakville, Ontario, Canada), staining of vaginal smears obtained between 09:00-10:00 AM was performed to identify the phases of the estrous cycle and to establish the individual animal cycling pattern as previously described (Koss L. G (Ed): The Papanicolaou Stain. In Diagnostic Cytology and its Histopathological Bases. 4th Edit. Koss, Leopold; Melamed and Myron R. Eds. J.B. Lippincott Williams & Wilkins (LWW), Philadelphia. 1992; Vol. 2: 1211-1221). Blood and virgin uteri were collected from nulliparous diabetic NOD females, at the proestrus, estrus and the metestrus phase, respectively, after four weeks in diabetes. Blood and uteri were also collected from age-matched, tacrolimus-treated nulliparous NOD mice immediately after completing the treatment schedule.
(§1) Fifty four NOD mice at the prediabetic and early diabetic stages were carefully selected to match the criteria of being 2 standard deviation heavier in body weight than their age-matched normoglycemic control mice and having blood glucose value of >14.9 mM/1 during the glucose tolerance test. The selected mice were 9 weeks old and were treated with 0.1 mg/kg q2d of tacrolimus (Prograf (5 mg/ml), Astellas) subcutaneously administered in 0.2 ml saline for three weeks after which animals were mated to males of the same strain (See FIG. 1). Vehicle (0.2 ml saline, s.q.) treated hyperglycemic NOD female mice were allowed two weeks in diabetes before they were mated to males of the same strain. Facial (mandibular) venous blood samples were collected from treated animals at 24 and 48 hours between injections and at pregnancy days 0.5, 2.5, 4.5, 6.5, 8.5, 10.5, 12.5, 14.5, 16.5 and 18.5 respectively following a standard procedure for facial bleed in mice (Golde et al Lab Anim (NY) 2005 34:39-43).
Twenty NZO and DIO/B6 female mice were maintained on a high fat diet consisted of 60% kcal fat, 20% kcal protein and 20% kcal carbohydrate, with a total energy mass of 5.24 kcal/gm (D12492, Research Diets Inc.; Cedarlane Laboratories, Burlington, Ontario, Canada) starting at 7 weeks of age and maintained on the diet for a total of 12 weeks of study period during which their weekly body weight changes and non-fasting blood glucose values were recorded. Mice which became obese as defined by having a Body mass index (BMI) value of 30, and tested positive for glucose intolerance were selected for an initial treatment episode with tacrolimus after being fed for four weeks with the high fat diet (See FIG. 2). Tacrolimus (Prograf (5 mg/ml), Astellas) was administered subcutaneously in a dose of 0.1 mg/kg q2d in 0.2 ml saline for three weeks to the obese and glucose intolerant NZO and DIO mice starting at the age of 10 weeks after which animals were mated to males of the same strain and pregnancy was dated from the morning of the positive detection of vaginal (copulation) plug. Facial (mandibular) venous blood samples were collected from treated animals at 24 and 48 hours between injections and at pregnancy days 0.5, 2.5, 4.5, 6.5, 8.5, 10.5, 12.5, 14.5, 16.5 and 18.5, respectively, following a standard procedure for facial bleed in mice (Golde et al. Lab Anim (NY) 2005 34:39-43). A lean cohort of control B6 and BALBc mice was fed with a regular 10 kcal % control chow diet containing the same protein content as the high fat diet with a total energy mass of 3.1 kcal/g (D12450Bi, Cedarlane, Ontario). […]

transplant patients = settings: cited from earlier work
[2] = system: diabetic and prediabetic mice; assay: Body weight in diabetic and prediabetic NOD mice; assay type: in vivo, mouse; settings: throughout the study period; FIG. 19A
Method: as §1

[3] = system: uterine cytokines (IFN-γ, TNFα, IL16, IL12 family and others); assay: Cytokine multiplex profiling in uteri at peri-implantation; assay type: in vivo, mouse
Description: In all untreated or vehicle-treated diabetic mice, an aberrant over-expression of IFN-γ, TNFα and IL16 accounted for the immune-cytotoxicity related implantation failure in these mice.

[4] = short-term administration, FIG. 3B

C=CC[C@@H]1/C=C(\C)C[C@H](C)C[C@H](OC)[C@H]2O[C@@](O)(C(=O)C(=O)N3CCCC[C@H]3C(=O)O[C@H](/C(C)=C/[C@@H]3CC[C@@H](O)[C@H](OC)C3)[C@H](C)[C@@H](O)CC1=O)[C@H](C)C[C@@H]2OC [tacrolimus]
weekly non-fasting blood glucose (glycemic phenotype) (diabetic NOD mice): effective in restoring normal glycemic phenotype
pituitary-ovarian response and hormonal release to mating ([1]; morning of vaginal plug and 4.5 days later): restored normal pituitary-ovarian response and hormonal release to mating
development of PCOS phenotype (hypertestosteronism, low serum LH) ([1]; short-term administration, high fat diet): prevented the development of PCOS phenotype
suppression of overt diabetes, share of treated NOD mice (NOD mice): 84%
ovulation (NOD, NZO and DIO mice; 0.1 mg/kg q2d s.c. for three weeks): enhanced ovulation
ovarian secretion of estrogen and progesterone (NOD, NZO and DIO mice; 0.1 mg/kg q2d s.c. for three weeks, peri- and post-implantation): normalized ovarian secretion of estrogen and progesterone
uterine growth (uterine weight ratio) (NOD, NZO and DIO mice; early proliferative phase (proestrus) of estrous cycle, FIG. 3C): significant improvement in uterine growth
numbers of atretic follicles (NOD, NZO and DIO mice; [4]): reduced numbers of atretic follicles
numbers of secondary follicles, antral follicles and corpora lutea (NOD, NZO and DIO mice; [4]): increased numbers of secondary follicles (FIG. 3B: S), antral follicles (FIG. 3B: A) and corpora lutea (FIG. 3B: CL)
safety of use during pregnancy (transplant patients): safe drug for use during pregnancy
body weight gain [2]: maintained normal body weight gain
anti-inflammatory cytokines IL-1ra, IL10 and IL2 in uteri ([3]; diabetes prone mice, FIG. 12): inhibition of some anti-inflammatory cytokines such as IL-1ra, IL10 and IL2
cytokines involved in inflammation, T-cell cytotoxicity and blood coagulation ([3]; peri-implantation, FIG. 8): pan-inhibition of cytokines involved in inflammation, T-cell cytotoxicity and blood coagulation
uterine expression of MCP1, MCP5, MIG9, RANTES, SDF-1, KC ([3]; peri-implantation, FIG. 9): significantly downregulated the uterine expression of six major IFN-γ-regulated inflammatory cytokines
Th1-induced cytokines (IFN-γ, IL16, TNFα, IL12 family) in uteri ([3]; short-term administration prior to mating, peri-implantation): significant inhibition of the vast majority of Th1-induced cytokines
IL12 family cytokines in uteri ([3]; time of implantation, FIG. 7F): downregulating members of IL12 family cytokines
IL5, IL7 and IL13 expression in uteri ([3]; time of implantation, FIG. 11): restored normalized levels of IL5, IL7 and IL13 expression
